Where two headings read alike, the source gives them in different places. One block for each compound: values may come before it.
Tests used:
Assay in all cases: biochemical
AKT3 = AKT3 (Homo sapiens, UniProt Q9Y243)
BMX = molecular target: T1, BMX (Homo sapiens, UniProt P51813)
T1 sequence (P51813 1-675): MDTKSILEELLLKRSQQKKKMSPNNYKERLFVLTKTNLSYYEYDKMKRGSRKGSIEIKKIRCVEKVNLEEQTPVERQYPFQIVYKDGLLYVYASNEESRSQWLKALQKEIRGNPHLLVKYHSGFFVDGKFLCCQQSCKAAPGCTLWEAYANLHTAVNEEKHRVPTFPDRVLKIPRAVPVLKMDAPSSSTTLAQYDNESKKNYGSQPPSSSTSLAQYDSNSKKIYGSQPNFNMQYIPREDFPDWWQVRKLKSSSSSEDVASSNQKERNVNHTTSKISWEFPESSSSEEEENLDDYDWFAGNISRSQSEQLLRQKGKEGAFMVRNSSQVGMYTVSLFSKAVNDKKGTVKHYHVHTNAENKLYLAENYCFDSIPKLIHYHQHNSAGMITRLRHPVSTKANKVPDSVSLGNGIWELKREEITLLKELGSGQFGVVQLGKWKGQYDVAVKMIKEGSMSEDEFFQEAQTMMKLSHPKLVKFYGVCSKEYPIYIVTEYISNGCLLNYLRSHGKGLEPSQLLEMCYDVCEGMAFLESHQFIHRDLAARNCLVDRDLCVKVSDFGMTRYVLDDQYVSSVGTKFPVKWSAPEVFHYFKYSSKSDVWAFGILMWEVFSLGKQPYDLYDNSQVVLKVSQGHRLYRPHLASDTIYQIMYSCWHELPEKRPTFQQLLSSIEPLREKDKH

CLK3 = CLK3 (Homo sapiens, UniProt P49761)
CLK3, sequence (P49761 whole entry): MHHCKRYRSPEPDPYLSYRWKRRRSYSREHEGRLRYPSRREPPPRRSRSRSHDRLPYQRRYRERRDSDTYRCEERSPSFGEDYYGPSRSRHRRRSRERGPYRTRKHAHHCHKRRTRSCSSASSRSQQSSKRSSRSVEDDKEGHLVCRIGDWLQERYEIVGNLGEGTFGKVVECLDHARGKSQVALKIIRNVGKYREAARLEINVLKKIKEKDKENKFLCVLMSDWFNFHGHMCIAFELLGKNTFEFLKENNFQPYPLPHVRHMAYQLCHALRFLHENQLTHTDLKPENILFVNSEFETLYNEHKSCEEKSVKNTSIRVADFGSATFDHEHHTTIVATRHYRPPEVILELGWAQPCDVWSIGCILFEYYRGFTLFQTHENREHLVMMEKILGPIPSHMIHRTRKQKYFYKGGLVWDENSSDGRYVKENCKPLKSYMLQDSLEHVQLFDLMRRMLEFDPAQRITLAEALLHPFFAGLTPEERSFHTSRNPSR

FECH = molecular target: T2, FECH (Homo sapiens, UniProt P22830)
T2 sequence (P22830 1-423): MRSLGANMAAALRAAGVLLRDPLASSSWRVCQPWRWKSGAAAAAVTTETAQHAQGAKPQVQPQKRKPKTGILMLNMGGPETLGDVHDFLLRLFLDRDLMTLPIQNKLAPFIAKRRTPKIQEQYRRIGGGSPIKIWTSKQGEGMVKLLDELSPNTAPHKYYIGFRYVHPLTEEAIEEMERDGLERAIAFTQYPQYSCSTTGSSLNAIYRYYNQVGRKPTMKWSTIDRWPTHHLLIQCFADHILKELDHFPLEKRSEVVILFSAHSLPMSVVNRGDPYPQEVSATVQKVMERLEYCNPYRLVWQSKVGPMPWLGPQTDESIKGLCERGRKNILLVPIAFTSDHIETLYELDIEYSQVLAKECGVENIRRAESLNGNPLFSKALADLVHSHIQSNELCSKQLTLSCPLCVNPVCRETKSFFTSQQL

GPRK5 = GPRK5 (Homo sapiens, UniProt P34947)
GPRK5, sequence (P34947 whole entry): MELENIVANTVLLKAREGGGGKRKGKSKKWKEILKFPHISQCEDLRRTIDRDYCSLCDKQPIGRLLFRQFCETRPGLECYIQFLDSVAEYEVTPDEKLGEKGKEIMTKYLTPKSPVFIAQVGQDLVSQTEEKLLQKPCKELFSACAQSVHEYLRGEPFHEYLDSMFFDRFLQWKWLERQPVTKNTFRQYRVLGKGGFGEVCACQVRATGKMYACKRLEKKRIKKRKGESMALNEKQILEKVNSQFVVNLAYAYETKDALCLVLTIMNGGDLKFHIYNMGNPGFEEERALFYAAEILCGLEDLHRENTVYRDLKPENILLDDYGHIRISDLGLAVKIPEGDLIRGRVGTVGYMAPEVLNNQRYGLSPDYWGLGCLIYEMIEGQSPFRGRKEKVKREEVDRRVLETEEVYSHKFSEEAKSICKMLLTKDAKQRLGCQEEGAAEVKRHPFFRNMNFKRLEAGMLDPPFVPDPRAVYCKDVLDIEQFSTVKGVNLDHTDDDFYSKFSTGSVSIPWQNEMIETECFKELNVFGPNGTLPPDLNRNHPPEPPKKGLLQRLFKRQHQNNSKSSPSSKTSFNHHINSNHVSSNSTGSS

MAP2K6 = molecular target: T3, MAP2K6 (Homo sapiens, UniProt P52564)
T3 sequence (P52564 1-334): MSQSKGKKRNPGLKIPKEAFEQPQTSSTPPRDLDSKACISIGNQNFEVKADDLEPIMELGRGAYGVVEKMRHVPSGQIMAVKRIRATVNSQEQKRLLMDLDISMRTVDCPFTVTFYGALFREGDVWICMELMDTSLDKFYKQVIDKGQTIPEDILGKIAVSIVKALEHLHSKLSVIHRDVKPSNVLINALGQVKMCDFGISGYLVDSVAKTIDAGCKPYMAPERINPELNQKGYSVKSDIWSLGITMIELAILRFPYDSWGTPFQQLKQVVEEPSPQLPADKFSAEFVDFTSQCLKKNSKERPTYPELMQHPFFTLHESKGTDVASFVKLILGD

SLK = SLK (Homo sapiens, UniProt Q9H2G2)
SLK, sequence (Q9H2G2 whole entry): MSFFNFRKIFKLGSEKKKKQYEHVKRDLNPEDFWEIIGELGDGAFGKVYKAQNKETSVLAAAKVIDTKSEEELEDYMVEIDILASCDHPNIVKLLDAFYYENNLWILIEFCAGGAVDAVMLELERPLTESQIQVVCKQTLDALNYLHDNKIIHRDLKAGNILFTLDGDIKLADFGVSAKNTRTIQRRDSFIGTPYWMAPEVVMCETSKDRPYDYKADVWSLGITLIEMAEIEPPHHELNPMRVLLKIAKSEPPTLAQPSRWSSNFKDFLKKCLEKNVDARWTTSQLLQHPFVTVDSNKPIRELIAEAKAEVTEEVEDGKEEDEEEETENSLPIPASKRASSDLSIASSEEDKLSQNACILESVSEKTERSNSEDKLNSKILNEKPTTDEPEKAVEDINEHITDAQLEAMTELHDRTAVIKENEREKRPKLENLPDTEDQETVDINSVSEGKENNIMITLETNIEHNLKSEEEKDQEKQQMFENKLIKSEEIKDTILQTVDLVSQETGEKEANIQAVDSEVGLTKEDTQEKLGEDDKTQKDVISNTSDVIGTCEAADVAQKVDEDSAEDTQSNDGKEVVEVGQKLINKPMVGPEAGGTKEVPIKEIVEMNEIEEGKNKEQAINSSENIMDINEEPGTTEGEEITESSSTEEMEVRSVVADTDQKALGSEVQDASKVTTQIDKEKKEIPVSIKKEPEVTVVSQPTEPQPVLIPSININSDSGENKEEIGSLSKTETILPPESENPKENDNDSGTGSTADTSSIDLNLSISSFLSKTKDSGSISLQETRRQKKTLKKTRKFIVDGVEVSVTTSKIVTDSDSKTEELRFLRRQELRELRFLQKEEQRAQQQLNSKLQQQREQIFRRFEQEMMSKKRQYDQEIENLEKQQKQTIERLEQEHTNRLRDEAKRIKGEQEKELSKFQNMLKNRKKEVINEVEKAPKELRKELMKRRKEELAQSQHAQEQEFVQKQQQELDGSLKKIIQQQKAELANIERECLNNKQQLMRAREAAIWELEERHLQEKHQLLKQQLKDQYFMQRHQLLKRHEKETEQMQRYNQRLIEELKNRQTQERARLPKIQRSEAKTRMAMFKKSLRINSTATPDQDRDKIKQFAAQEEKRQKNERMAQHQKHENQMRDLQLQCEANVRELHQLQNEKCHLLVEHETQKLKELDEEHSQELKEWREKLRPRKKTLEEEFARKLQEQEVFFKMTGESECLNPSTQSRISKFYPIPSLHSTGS

TLK1 = molecular target: T4, TLK1 (Homo sapiens, UniProt Q9UKI8)
T4 sequence (Q9UKI8 1-766): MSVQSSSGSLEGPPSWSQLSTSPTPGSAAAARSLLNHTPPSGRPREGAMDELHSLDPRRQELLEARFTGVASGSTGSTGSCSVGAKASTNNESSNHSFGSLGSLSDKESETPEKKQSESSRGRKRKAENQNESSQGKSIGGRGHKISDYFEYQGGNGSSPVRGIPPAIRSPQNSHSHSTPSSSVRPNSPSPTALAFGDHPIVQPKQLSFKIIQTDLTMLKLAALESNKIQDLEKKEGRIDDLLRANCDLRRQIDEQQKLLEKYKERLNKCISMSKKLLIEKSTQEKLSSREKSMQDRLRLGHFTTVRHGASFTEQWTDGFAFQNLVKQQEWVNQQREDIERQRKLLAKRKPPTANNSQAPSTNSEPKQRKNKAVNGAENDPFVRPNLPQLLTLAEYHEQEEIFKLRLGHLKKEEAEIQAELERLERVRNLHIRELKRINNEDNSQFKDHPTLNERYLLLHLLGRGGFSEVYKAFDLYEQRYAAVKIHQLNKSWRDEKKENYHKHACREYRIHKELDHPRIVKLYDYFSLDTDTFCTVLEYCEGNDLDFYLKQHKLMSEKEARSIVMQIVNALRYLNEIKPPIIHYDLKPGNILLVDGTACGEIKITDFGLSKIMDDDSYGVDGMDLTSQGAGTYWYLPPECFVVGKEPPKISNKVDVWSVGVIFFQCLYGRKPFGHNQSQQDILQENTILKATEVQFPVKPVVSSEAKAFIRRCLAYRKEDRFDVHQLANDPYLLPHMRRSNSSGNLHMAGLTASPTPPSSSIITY

AKT3, sequence (Q9Y243 whole entry): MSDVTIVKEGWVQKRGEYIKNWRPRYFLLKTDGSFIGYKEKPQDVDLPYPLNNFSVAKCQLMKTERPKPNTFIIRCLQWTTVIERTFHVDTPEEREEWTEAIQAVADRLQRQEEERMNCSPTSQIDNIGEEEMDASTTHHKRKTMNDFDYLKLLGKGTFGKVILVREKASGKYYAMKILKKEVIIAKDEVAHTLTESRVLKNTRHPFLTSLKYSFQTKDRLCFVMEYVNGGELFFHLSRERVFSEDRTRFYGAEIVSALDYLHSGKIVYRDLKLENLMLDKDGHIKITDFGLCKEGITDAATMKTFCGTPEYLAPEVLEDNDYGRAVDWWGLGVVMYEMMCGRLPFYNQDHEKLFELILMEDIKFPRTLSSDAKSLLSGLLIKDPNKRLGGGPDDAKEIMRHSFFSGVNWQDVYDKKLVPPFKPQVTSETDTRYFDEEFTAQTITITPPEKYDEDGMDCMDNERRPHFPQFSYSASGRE

Compound: CNc1ncc2cc(-c3cc(F)ccc3F)c(=O)n(CCCCN)c2n1 [compound 5, 8-(4-Aminobutyl)-6-(2,5-difluorophenyl)-2-(methylamino)pyrido[2,3-d]pyrimidin-7(8H)-one]
ΔTm at 10 µM (AKT3; read-out: dTm MR22 (5)): 0.5 °C | ΔTm at 10 µM (BMX; read-out: dTm MR22 (5)): 1.9 °C | ΔTm at 10 µM (CLK3; read-out: dTm MR22 (5)): -0.4 °C | ΔTm at 10 µM (FECH; read-out: dTm MR22 (5)): 0.3 °C | ΔTm at 10 µM (GPRK5; read-out: dTm MR22 (5)): -0.6 °C | ΔTm at 10 µM (MAP2K6; read-out: dTm MR22 (5)): 1 °C | ΔTm at 10 µM (SLK; read-out: dTm MR22 (5)): -0.6 °C | ΔTm at 10 µM (TLK1; read-out: dTm MR22 (5)): -1.3 °C

Compound: CNc1ncc2cc(-c3ccccc3Cl)c(=O)n(CCCCN)c2n1 [compound 4, 8-(4-Aminobutyl)-6-(2-chlorophenyl)-2-(methylamino)pyrido[2,3-d]pyrimidin-7(8H)-one]
ΔTm at 10 µM (AKT3; read-out: dTm MR21 (4)): 0.7 °C | ΔTm at 10 µM (BMX; read-out: dTm MR21 (4)): 3.3 °C | ΔTm at 10 µM (CLK3; read-out: dTm MR21 (4)): 0 °C | ΔTm at 10 µM (FECH; read-out: dTm MR21 (4)): -1.1 °C | ΔTm at 10 µM (GPRK5; read-out: dTm MR21 (4)): -1.2 °C | ΔTm at 10 µM (MAP2K6; read-out: dTm MR21 (4)): 3.1 °C | ΔTm at 10 µM (SLK; read-out: dTm MR21 (4)): 1.6 °C | ΔTm at 10 µM (TLK1; read-out: dTm MR21 (4)): 0.5 °C

Compound: CNc1ncc2cc(-c3ccc(-c4cccc(C)n4)cc3Cl)c(=O)n(CC3OCC(N)CO3)c2n1 (stereo not shown) [compound 2, G-5555]
dTm G-5555 (2) (AKT3; 10 µM, binder): 1.4 °C | dTm G-5555 (2) (BMX; 10 µM, binder): 1.3 °C | dTm G-5555 (2) (CLK3; 10 µM, binder): 0.1 °C | dTm G-5555 (2) (GPRK5; 10 µM, binder): -0.2 °C | dTm G-5555 (2) (MAP2K6; 10 µM, binder): 4.4 °C | dTm G-5555 (2) (SLK; 10 µM, binder): 7.2 °C | dTm G-5555 (2) (TLK1; 10 µM, binder): -0.3 °C

Further lines, results first:

ΔTm at 10 µM (AKT3; read-out: dTm 7): 0 °C | ΔTm at 10 µM (BMX; read-out: dTm 7): 3.2 °C | ΔTm at 10 µM (CLK3; read-out: dTm 7): 0.5 °C | ΔTm at 10 µM (FECH; read-out: dTm 7): -1.1 °C | ΔTm at 10 µM (GPRK5; read-out: dTm 7): 0.2 °C | ΔTm at 10 µM (MAP2K6; read-out: dTm 7): 0.9 °C | ΔTm at 10 µM (TLK1; read-out: dTm 7): 0.9 °C
Compound: CNc1ncc2cc(-c3cc(Br)ccc3Cl)c(=O)n(C[C@H]3OC[C@H](N)CO3)c2n1 [compound 7, 8-(((2r,5r)-5-Amino-1,3-dioxan-2-yl)methyl)-6-(5-bromo-2-chlorophenyl)-2-(methylamino)pyrido[2,3-d]pyrimidin-7(8H)-one]

ΔTm at 10 µM (AKT3; read-out: dTm 6): 0.2 °C | ΔTm at 10 µM (BMX; read-out: dTm 6): 3.8 °C | ΔTm at 10 µM (CLK3; read-out: dTm 6): -0.3 °C | ΔTm at 10 µM (FECH; read-out: dTm 6): 0.2 °C | ΔTm at 10 µM (GPRK5; read-out: dTm 6): 0 °C | ΔTm at 10 µM (MAP2K6; read-out: dTm 6): 1.4 °C | ΔTm at 10 µM (TLK1; read-out: dTm 6): 0 °C
Compound: CNc1ncc2cc(-c3cc(Br)ccc3Cl)c(=O)n(CCCCN)c2n1 [compound 6, 8-(4-Aminobutyl)-6-(5-bromo-2-chlorophenyl)-2-(methylamino)pyrido[2,3-d]pyrimidin-7(8H)-one]
